Experimental data from patent EP0041491B1, “New para-substituted 3-phenoxy-1-alkylamino-propanol-2-s having beta receptor blocking properties” (priority 1980, dated 1981).

How the values were obtained:
[1] = test system: cardiac beta-adrenoceptors; experiment: Experiment A: blockade of isoprenaline induced heart rate response, i.v. bolus of test compound, reserpinized anaesthetized cat; format: in vivo; conditions: i.v. bolus injection during isoprenaline infusion, reserpine pretreated, pentobarbital anaesthetized, vagotomized cats
Experimental: (§1) A bilateral vagotomy was performed in the neck. […] The perfusion pressure (PP) was recorded.
For each dose of the test compound the peak reduction of the isoprenaline heart rate response was expressed as per cent blockade according to the formula: [formula]
(§2) Per cent blockade (for each dose) was then plotted against log dose of the test compound. The ED:50 value (i.e. the dose which produced half maximal blockade) was interpolated.

[2] = test system: vascular beta-adrenoceptors; experiment: Experiment A: blockade of isoprenaline induced vasodilatation (hind leg perfusion pressure), i.v. bolus of test compound; format: in vivo; conditions: i.v. bolus injection during isoprenaline infusion, reserpine pretreated cats
Experimental: A bilateral vagotomy was performed in the neck. […] The perfusion pressure (PP) was recorded. […]
as §2

[3] = test system: cardiac beta-adrenoceptors; experiment: Experiment B: blockade of isoprenaline induced heart rate response, i.v. infusion of test compound; format: in vivo; conditions: i.v. infusion 12 minutes per dose, isoprenaline bolus 10 minutes after start, reserpine pretreated cats
Experimental: as §1
(§3) An isoprenaline bolus dose which gave a heart rate response which was about 80% of the maximal response was then tested out. Usually this dose of isoprenaline was 0.4 µmol/kg.
(§4) The test compound was then infused intravenously in increasing doses. Each dose was given during 12 minutes with an interval of 18 minutes between doses.
(§5) The control dose of isoprenaline was injected 10 minutes after start of each infusion of the test compound. The dose of the test compound was increased logarithmically until total blockade of the isoprenaline responses was achieved.
(§6) The inhibitory effect of each dose of the test compound was expressed as per cent blockade according to the formula: [formula]
(§7) Per cent blockade was then plotted against log dose of the blocker and the ED:50-value was interpolated (cf. above). The ED:50 for heart rate blockade and ED:50 for blockade of the vaso- dilatation could then be compared and the selectivity for the compound estimated. Intrinsic sympa- thomimetic activity was evaluated as the maximal heart rate elevation during infusion of the test compound.

[4] = test system: vascular beta-adrenoceptors; experiment: Experiment B: blockade of isoprenaline induced vasodilatation, i.v. infusion of test compound; format: in vivo; conditions: i.v. infusion 12 minutes per dose, isoprenaline bolus 10 minutes after start, reserpine pretreated cats
Experimental: as §1, §3, §4, §5, §6, §7

[5] = Experiment A: plasma half life estimated by the method of Levy from time to 50% recovery of the blockade; conditions: cat, iv
Experimental: (§8) All compounds were thereby tested in two different experimental models but with the same species, premedication and preparation. Cats (males and females weighing 2.5-3.5 kg) were pretreated with reserpine (5 mg/kg bodyweight administered intraperitoneally) about 16 hours before the experiments. The animals were pretreated with reserpine in order to eliminate the endogenous sympathetic control of heart rate and vascular smooth muscle tone. The cats were anaesthetized with pentobarbital (30 mg/kg bodyweight administered i.p.) and artificially ventilated with room air. A bilateral vagotomy was performed in the neck. Blood pressure was obtained from a cannulated carotid artery and heart rate was recorded from a cardiotachometer, triggered by the oscillations in blood pressure. The femoral artery of one hind leg was cannulated in both directions. Blood taken from the proximal part was pumped, at a constant flowrate, back into the distal part of the artery by means of a roller pump (Watson-Marlow). The perfusion pressure (PP) was recorded. Changes in PP indicated changes in the peripheral vascular resistance of the leg.
(§9) The maximal heart rate and vasodilator responses to isoprenaline were established by injecting a high i.v. bolus dose of isoprenaline (2.0 µmol/kg). An isoprenaline infusion rate was then established which gave a heart rate response (at steady state) which was about 80% of the maximal heart rate response to isoprenaline. Usually this dose of isoprenaline was 0.25 µmol/kg x min. The vasodilator response to this dose of isoprenaline was also approximately 80% of maximal. The isoprenaline dose was then infused during periods of 20 minutes with an interval of 20 minutes between the infusion periods.
(§10) The test compound was administered as an intravenous bolus injection seven minutes after start of each isoprenaline infusion. The dose of the test compound was increased until total blockade of the isoprenaline responses was achieved.
(§11) The plasma half life was estimated by the method of Levy (Nagashima, R., O'Reilly, R. A. and Levy, G., Clin. Pharmacol. Ther., 10 (1969) 22). The time from the peak inhibitory effect of each dose until 50% recovery was determined and plotted against log dose of the compound. The slope of the line obtained was calculated with linear regression. The slope equals 2.303/KE where Ke is the rate constant for elimination. The plasma half life (t 1/2) was then calculated according to the relation t 1/2 = 0.693/KE.

in vivo = conditions: cat, iv
Experimental: as §8, §9, §10, §11

CCOC(=O)CCc1ccc(OCC(O)CNC(C)C)c(F)c1 (centres unmarked) [Ex. 25, ethyl 3-[3-fluoro-4-(2-hydroxy-3-isopropylaminopropoxy)phenyl]propanoate]
Blockade of isoprenaline induced effects Heart rate ED:50 [1]: 0.6 µmol/kg | Blockade of isoprenaline induced effects Vasodilatation ED:50 [2]: >12.8 µmol/kg | Blockade of isoprenaline induced effects Heart rate ED:50 [3]: 2.1 µmol/kg/min | Blockade of isoprenaline induced effects Vasodilatation ED:50 [4]: >6.4 µmol/kg/min | half-life [5]: 0.9 min

COC(=O)CCc1ccc(OCC(O)CNC(C)C)cc1 (centres unmarked) [Ex. 1, methyl 3-[4-(2-hydroxy-3.-isopropylaminopropoxy)phenyl]propanoate]
Blockade of isoprenaline induced effects Heart rate ED:50 [1]: 2.3 µmol/kg | Blockade of isoprenaline induced effects Vasodilatation ED:50 [2]: ~32.0 µmol/kg | Blockade of isoprenaline induced effects Heart rate ED:50 [3]: 3.6 µmol/kg/min | Blockade of isoprenaline induced effects Vasodilatation ED:50 [4]: >25.6 µmol/kg/min | half-life (in vivo): 1 min

CCOC(=O)CCc1ccc(OCC(O)CNC(C)C)c(OC)c1 (centres unmarked) [Ex. 21, ethyl 3-[4-(2-hydroxy-3-isopropylaminopropoxy)-3-methoxyphenyl]propanoate]
Blockade of isoprenaline induced effects Heart rate ED:50 [1]: 0.8 µmol/kg | Blockade of isoprenaline induced effects Vasodilatation ED:50 [2]: >52 µmol/kg | Blockade of isoprenaline induced effects Heart rate ED:50 [3]: 2.05 µmol/kg/min | Blockade of isoprenaline induced effects Vasodilatation ED:50 [4]: >6.4 µmol/kg/min | half-life [5]: 0.9 min

COC(=O)CCc1ccc(OCC(O)CNC(C)C)c(OC)c1 (centres unmarked) [Ex. 15, methyl 3-[4-(2-hydroxy-3-isopropylaminopropoxy)-3-methoxyphenyl]propanoate]
Blockade of isoprenaline induced effects Heart rate ED:50 [1]: 0.9 µmol/kg | Blockade of isoprenaline induced effects Vasodilatation ED:50 [2]: ~20.0 µmol/kg | Blockade of isoprenaline induced effects Heart rate ED:50 [3]: 1.9 µmol/kg/min | Blockade of isoprenaline induced effects Vasodilatation ED:50 [4]: 18.0 µmol/kg/min | half-life [5]: 1 min

CCOC(=O)CCc1ccc(OCC(O)CNC(C)C)c(Cl)c1 (centres unmarked) [Ex. 23, ethyl 3-[3-chloro-4-(2-hydroxy-3-isopropylaminopropoxy)phenyl]propanoate]
Blockade of isoprenaline induced effects Heart rate ED:50 [1]: 1.8 µmol/kg | Blockade of isoprenaline induced effects Vasodilatation ED:50 [2]: >52 µmol/kg | half-life [5]: 1.8 min

COCCOC(=O)CCCc1ccc(OCC(O)CNC(C)C)cc1 (centres unmarked) [Ex. 4, 2-Methoxyethyl 4-[4-(2-hydroxy-3-isopropylaminopropoxy)phenyl]butanoate]
Blockade of isoprenaline induced effects Heart rate ED:50 [1]: 3.0 µmol/kg | Blockade of isoprenaline induced effects Vasodilatation ED:50 [2]: 51.8 µmol/kg | Blockade of isoprenaline induced effects Heart rate ED:50 [3]: 1.1 µmol/kg/min | Blockade of isoprenaline induced effects Vasodilatation ED:50 [4]: 2.3 µmol/kg/min | half-life [5]: 1.7 min

CCOC(=O)CCc1ccc(OCC(O)CNC(C)C)c(Br)c1 (centres unmarked) [Ex. 20, ethyl 3-[3-bromo-4-(2-hydroxy-3-isopropylaminopropoxy)phenyl]propanoate]
Blockade of isoprenaline induced effects Heart rate ED:50 [1]: 0.45 µmol/kg | Blockade of isoprenaline induced effects Vasodilatation ED:50 [2]: >12.8 µmol/kg | Blockade of isoprenaline induced effects Heart rate ED:50 [3]: 1.2 µmol/kg/min | Blockade of isoprenaline induced effects Vasodilatation ED:50 [4]: >6.4 µmol/kg/min | half-life [5]: 2.2 min

CCOC(=O)CCc1ccc(OCC(O)CNC(C)C)c(OCC)c1 (centres unmarked) [Ex. 22, ethyl 3-[3-ethoxy-4-(2-hydroxy-3-isopropylaminopropoxy)phenyl]propanoate]
Blockade of isoprenaline induced effects Heart rate ED:50 [1]: 2.0 µmol/kg | Blockade of isoprenaline induced effects Vasodilatation ED:50 [2]: >52 µmol/kg | Blockade of isoprenaline induced effects Heart rate ED:50 [3]: 0.6 µmol/kg/min | Blockade of isoprenaline induced effects Vasodilatation ED:50 [4]: 0.8 µmol/kg/min | half-life [5]: 0.9 min

CCOC(=O)CCc1ccc(OCC(O)CNC(C)C)cc1 (centres unmarked) [Ex. 2, Ethyl 3-[4-(2-hydroxy-3-isopropylaminopropoxy)-phenyl]propanoate]
Blockade of isoprenaline induced effects Heart rate ED:50 [1]: 4.7 µmol/kg | Blockade of isoprenaline induced effects Vasodilatation ED:50 [2]: >51.2 µmol/kg | Blockade of isoprenaline induced effects Heart rate ED:50 [3]: 2.1 µmol/kg/min | Blockade of isoprenaline induced effects Vasodilatation ED:50 [4]: 12.0 µmol/kg/min | half-life [5]: 1 min

COCCOC(=O)CCc1ccc(OCC(O)CNC(C)C)cc1 (centres unmarked) [Ex. 3, 2-Methoxyethyl 3-[4-(2-hydroxy-3-isopropylaminopropoxy)phenyl]propanoate]
Blockade of isoprenaline induced effects Heart rate ED:50 [1]: 26.0 µmol/kg | Blockade of isoprenaline induced effects Vasodilatation ED:50 [2]: ~30.0 µmol/kg | Blockade of isoprenaline induced effects Heart rate ED:50 [3]: 1.3 µmol/kg/min | Blockade of isoprenaline induced effects Vasodilatation ED:50 [4]: >25.6 µmol/kg/min | half-life [5]: 1.5 min

CCCOC(=O)CCc1ccc(OCC(O)CNC(C)C)cc1 (centres unmarked) [Ex. 5, Propyl 3-[4-(2-hydroxy-3-isopropylaminopropoxy)phenyl]propanoate]
Blockade of isoprenaline induced effects Heart rate ED:50 [1]: ~20.0 µmol/kg | Blockade of isoprenaline induced effects Vasodilatation ED:50 [2]: >51.2 µmol/kg | Blockade of isoprenaline induced effects Heart rate ED:50 [3]: 9.0 µmol/kg/min | Blockade of isoprenaline induced effects Vasodilatation ED:50 [4]: >25.6 µmol/kg/min | half-life [5]: 0.3 min

COc1cc(CCC(=O)OC(C)C)ccc1OCC(O)CNC(C)C (centres unmarked) [Ex. 24, isopropyl 3-[4-(2-hydroxy-3-isopropylaminopropoxy)-3-methoxyphenyl]propanoate]
Blockade of isoprenaline induced effects Heart rate ED:50 [1]: 1.2 µmol/kg | Blockade of isoprenaline induced effects Vasodilatation ED:50 [2]: >12.8 µmol/kg | half-life [5]: 2.1 min

CC(C)NCC(O)COc1ccc(CCC(=O)OC(C)C)cc1 (centres unmarked) [Ex. 6, Isopropyl 3-[4-(2-hydroxy-3-isopropylaminopropoxy)phenyl]propanoate]
Blockade of isoprenaline induced effects Heart rate ED:50 [1]: 1.7 µmol/kg | Blockade of isoprenaline induced effects Vasodilatation ED:50 [2]: >12.8 µmol/kg | Blockade of isoprenaline induced effects Heart rate ED:50 [3]: 0.9 µmol/kg/min | Blockade of isoprenaline induced effects Vasodilatation ED:50 [4]: >6.4 µmol/kg/min | half-life [5]: 3.5 min

CCOC(=O)CCCc1ccc(OCC(O)CNC(C)C)c(Br)c1 (centres unmarked) [Ex. 8, Ethyl 4-[3-bromo-4-(2-hydroxy-3-isopropylaminopropoxy)phenyl]butanoate]
Blockade of isoprenaline induced effects Heart rate ED:50 [1]: 2.1 µmol/kg | Blockade of isoprenaline induced effects Vasodilatation ED:50 [2]: >17.0 µmol/kg | Blockade of isoprenaline induced effects Heart rate ED:50 [3]: 1.2 µmol/kg/min | Blockade of isoprenaline induced effects Vasodilatation ED:50 [4]: >6.4 µmol/kg/min | half-life [5]: ~8 min

CCOC(=O)CCCc1ccc(OCC(O)CNC(C)C)cc1 (centres unmarked) [Ex. 7, Ethyl 4-[4-(2-hydroxy-3-isopropylaminopropoxy)phenyl]butanoate]
Blockade of isoprenaline induced effects Heart rate ED:50 [1]: 1.8 µmol/kg | Blockade of isoprenaline induced effects Vasodilatation ED:50 [2]: >51.0 µmol/kg | Blockade of isoprenaline induced effects Heart rate ED:50 [3]: 1.5 µmol/kg/min | Blockade of isoprenaline induced effects Vasodilatation ED:50 [4]: >6.4 µmol/kg/min | half-life [5]: 3.3 min
